# Molecular target: T1, Human thrombin (Homo sapiens, UniProt P00734)
# T1 construct: purchased Haematologic Technologies Inc
# Assay: Inhibition of the protease activity of thrombin (chromogenic substrate S-2238)
# Format: biochemical
# Details: Table C; 3 nM thrombin, 125 μM S-2238, 10 min pre-incubation, RT
# Protocol: Compounds described herein can be assayed, by a variety of methods known in the art and described herein, for inhibition of biological activity, e.g., protease activity, of a variety of proteins, e.g., thrombin.
# The thrombin activity reported herein (e.g., Table A) was obtained as follows. Human thrombin was obtained from Haematologic Technologies Inc. The chromogenic
# Thrombin was assayed in buffer containing 0.05 M Tris (pH 7.4), 0.015 M NaCl and 0.01% PEG-8000. The final concentration of enzyme used was 3 nM thrombin. […] All assays were performed in 96-well microtiter plates at room temperature (RT). […] Inhibitor IC50 values were determined by adding test compound as ten point, three-fold serial dilutions in buffer solution, as known in the art. The plate was read at 10 minutes after substrate addition. The IC50 was calculated by plotting the percent (%) inhibition against compound concentration and fitting the data to a constrained four parameter sigmoidal curve, as known in the art.
row,SMILES,IC50 [nM]
1,"COc1ccccc1CNc1nc(-c2ccco2)nn1C(=O)c1ccc(C)cc1 [Cmpd 370, 3-(furan-2-yl)-N-[(2-methoxyphenyl)methyl]-1-[(4-methylphenyl)carbonyl]-1H-1,2,4-triazol-5-amine]",100 to 1000
2,"CCCC(=O)n1nc(-c2cccnc2)nc1NCc1cccs1 [Cmpd 342, 1-[3-(pyridin-3-yl)-5-[(thiophen-2-ylmethyl)amino]-1H-1,2,4-triazol-1-yl]butan-1-one]",< 100
3,"CCC(=O)n1nc(-c2cccnc2)nc1NCc1ccc(OC)cc1 [Cmpd 324, 1-(5-[(4-methoxyphenyl)methyl]amino-3-(pyridin-3-yl)-1H-1,2,4-triazol-1-yl)propan-1-one]",100 to 1000
4,"O=C(Cc1ccccc1)n1nc(-c2ccccc2)nc1NCc1ccccc1 [Cmpd 353, 1-[5-(benzylamino)-3-phenyl-1H-1,2,4-triazol-1-yl]-2-phenylethan-1-one]",< 100
5,"CC(=O)n1nc(-c2cccnc2)nc1NCc1cccs1 [Cmpd 343, 1-[3-(pyridin-3-yl)-5-[(thiophen-2-ylmethyl)amino]-1H-1,2,4-triazol-1-yl]ethan-1-one]",< 100
6,"COc1ccccc1C(=O)n1nc(-c2ccco2)nc1SC [Cmpd 367, 3-(furan-2-yl)-1-[(2-methoxyphenyl)carbonyl]-5-(methylsulfanyl)-1H-1,2,4-triazole]",< 100
7,"Nc1n[nH]c(-c2ccccn2)n1 [Cmpd 2, 3-(pyridin-2-yl)-1H-1,2,4-triazol-5-amine]",> 1000
8,"O=C(Cc1ccccc1)n1nc(-c2cccnc2)nc1NCc1ccc(F)cc1 [Cmpd 313, 1-(5-[(4-fluorophenyl)methyl]amino-3-(pyridin-3-yl)-1H-1,2,4-triazol-1-yl)-2-phenylethan-1-one]",< 100
9,"COc1ccc(CNc2nc(-c3ccco3)nn2C(=O)c2ccc(C)cc2)cc1 [Cmpd 371, 3-(furan-2-yl)-N-[(4-methoxyphenyl)methyl]-1-[(4-methylphenyl)carbonyl]-1H-1,2,4-triazol-5-amine]",100 to 1000
10,"CS(=O)(=O)n1nc(-c2ccco2)nc1NCc1cccs1 [Cmpd 369, 3-(furan-2-yl)-1-methanesulfonyl-N-(thiophen-2-ylmethyl)-1H-1,2,4-triazol-5-amine]",> 1000
11,"COc1ccc(CNc2nc(-c3cccnc3)nn2C(=O)c2ccccc2)cc1 [Cmpd 357, 1-benzoyl-N-[(4-methoxyphenyl)methyl]-3-(pyridin-3-yl)-1H-1,2,4-triazol-5-amine]",100 to 1000
12,"O=C(Nc1n[nH]c(-c2ccco2)n1)c1ccccc1F [Cmpd 365, 2-fluoro-N-[5-(furan-2-yl)-1H-1,2,4-triazol-3-yl]benzamide]",> 1000
13,"COC(=O)c1nnc(NC(=O)c2ccc(F)cc2)[nH]1 [Cmpd 385, methyl 5-[(4-fluorobenzene)amido]-4H-1,2,4-triazole-3-carboxylate]",100 to 1000
14,"O=C(c1ccco1)n1nc(-c2cccnc2)nc1NCc1ccc(F)cc1 [Cmpd 402, N-[(4-fluorophenyl)methyl]-1-[(furan-2-yl)carbonyl]-3-(pyridin-3-yl)-1H-1,2,4-triazol-5-amine]",< 100
15,"CC(C)CC(=O)n1nc(-c2cccnc2)nc1NCc1ccc(F)cc1 [Cmpd 314, 1-(5-[(4-fluorophenyl)methyl]amino-3-(pyridin-3-yl)-1H-1,2,4-triazol-1-yl)-3-methylbutan-1-one]",< 100

# Same assay, conditions: inhibition of the protease activity of thrombin
row,SMILES,IC50 [nM]
1,"CCNC(=O)c1cn(-c2ccccn2)nc1NCc1ccc(F)cc1 [Cmpd 295, N-ethyl-3-[(4-fluorophenyl)methyl]amino-1-(pyridin-2-yl)-1H-pyrazole-4-carboxamide]",> 1000
2,"O=C(c1cn(-c2ccccn2)nc1NCc1ccc(F)cc1)N1CCCCC1 [Cmpd 225, N-[(4-fluorophenyl)methyl]-4-[(piperidin-1-yl)carbonyl]-1-(pyridin-2-yl)-1H-pyrazol-3-amine]",> 1000
3,"COc1ccccc1C(=O)N(Cc1ccccc1)c1cc(-c2ccccc2F)n[nH]1 [Cmpd 292, N-benzyl-N-[3-(2-fluorophenyl)-1H-pyrazol-5-yl]-2-methoxybenzamide]",> 1000
4,"COc1ccc(C(=O)n2nc(-c3ccccn3)nc2NCc2ccccc2)c(OC)c1 [Cmpd 235, N-benzyl-1-[(2,4-dimethoxyphenyl)carbonyl]-3-(pyridin-2-yl)-1H-1,2,4-triazol-5-amine]",< 100
5,"COc1ccc(C(=O)n2nc(-c3ccccc3F)cc2NCc2ccccc2)c(OC)c1 [Cmpd 234, N-benzyl-1-[(2,4-dimethoxyphenyl)carbonyl]-3-(2-fluorophenyl)-1H-pyrazol-5-amine]",> 1000
6,"O=C(c1ccc(Cl)cc1)n1nc(-c2ccncc2)nc1NCc1ccccc1 [Cmpd 263, N-benzyl-1-[(4-chlorophenyl)carbonyl]-3-(pyridin-4-yl)-1H-1,2,4-triazol-5-amine]",< 100
7,"COc1ccc(CNc2nc(-c3cccnc3)nn2C(=O)c2ccsc2)cc1 [Cmpd 228, N-[(4-methoxyphenyl)methyl]-3-(pyridin-3-yl)-1-[(thiophen-3-yl)carbonyl]-1H-1,2,4-triazol-5-amine]",> 1000
8,"COc1ccccc1C(=O)n1nc(-c2ccccn2)cc1NCc1ccco1 [Cmpd 201, N-(furan-2-ylmethyl)-1-[(2-methoxyphenyl)carbonyl]-3-(pyridin-2-yl)-1H-pyrazol-5-amine]",100 to 1000

# Same assay, conditions: inhibition of the protease activity of thrombin; class symbols a/b/c
row,SMILES,IC50 [nM]
1,O=C(Nc1ccccc1F)n1nc(-c2cccnc2)nc1NCc1ccc(F)cc1 [Cmpd 18],> 1000
2,CCC(=O)n1nc(-c2cccnc2)nc1N(C)C [Cmpd 24],> 1000
3,"CC(C)CC(=O)n1nc(-c2ccccc2F)cc1NCc1ccccc1 [Cmpd 134, 1-[5-(benzylamino)-3-(2-fluorophenyl)-1H-pyrazol-1-yl]-3-methylbutan-1-one]",> 1000
4,"CC(C)C(=O)n1nc(-c2ccncc2)nc1NCc1ccccc1 [Cmpd 146, 1-[5-(benzylamino)-3-(pyridin-4-yl)-1H-1,2,4-triazol-1-yl]-2-methylpropan-1-one]",< 100
5,"CCC(=O)n1nc(-c2ccncc2)nc1NCc1ccc(OC)cc1 [Cmpd 100, 1-(5-[(4-methoxyphenyl)methyl]amino-3-(pyridin-4-yl)-1H-1,2,4-triazol-1-yl)propan-1-one]",100 to 1000
6,"O=C(c1ccc(Cl)cc1)n1nc(-c2ccncc2)nc1NCc1ccc(F)cc1 [Cmpd 122, 1-[(4-chlorophenyl)carbonyl]-N-[(4-fluorophenyl)methyl]-3-(pyridin-4-yl)-1H-1,2,4-triazol-5-amine]",100 to 1000
7,Cc1c(-c2ccccc2)nn(C(=O)C(C)(C)C)c1NCc1ccc(F)cc1 [Cmpd 38],> 1000
8,"CCCC(=O)n1nc(-c2ccccn2)nc1NCc1ccc(OC)cc1 [Cmpd 92, 1-(5-[(4-methoxyphenyl)methyl]amino-3-(pyridin-2-yl)-1H-1,2,4-triazol-1-yl)butan-1-one]",< 100
9,"O=C(Cc1ccccc1)n1nc(-c2ccccn2)nc1NCc1ccc(F)cc1 [Cmpd 66, 1-(5-[(4-fluorophenyl)methyl]amino-3-(pyridin-2-yl)-1H-1,2,4-triazol-1-yl)-2-phenylethan-1-one]",< 100
10,Nc1cc(-c2ccccn2)nn1-c1ccccc1Cl [Cmpd 42],> 1000
11,"COC(=O)c1n[nH]c(NC(=O)c2ccccc2F)n1 [Cmpd 193, methyl 5-[(2-fluorobenzene)amido]-1H-1,2,4-triazole-3-carboxylate]",> 1000
12,"CC(C)(C)C(=O)n1nc(-c2ccncc2)nc1NCc1ccc(F)cc1 [Cmpd 75, 1-(5-[(4-fluorophenyl)methyl]amino-3-(pyridin-4-yl)-1H-1,2,4-triazol-1-yl)-2,2-dimethylpropan-1-one]",< 100
13,"CCCC(=O)n1nc(-c2ccccn2)nc1NCc1ccccc1 [Cmpd 141, 1-[5-(benzylamino)-3-(pyridin-2-yl)-1H-1,2,4-triazol-1-yl]butan-1-one]",< 100
14,"COc1ccc(CNc2nc(-c3ccccn3)nn2C(=O)c2ccco2)cc1 [Cmpd 123, 1-[(furan-2-yl)carbonyl]-N-[(4-methoxyphenyl)methyl]-3-(pyridin-2-yl)-1H-1,2,4-triazol-5-amine]",100 to 1000
15,"COc1ccc(CNc2nc(-c3ccncc3)nn2C(=O)c2ccoc2)cc1 [Cmpd 127, 1-[(furan-3-yl)carbonyl]-N-[(4-methoxyphenyl)methyl]-3-(pyridin-4-yl)-1H-1,2,4-triazol-5-amine]",> 1000
16,"O=C(Oc1ccccc1F)n1nc(-c2cccnc2)nc1NCc1ccc(F)cc1 [Cmpd 173, 2-fluorophenyl 5-[(4-fluorophenyl)methyl]amino-3-(pyridin-3-yl)-1H-1,2,4-triazole-1-carboxylate]",> 1000
17,O=C(c1ccccc1)n1nc(-c2ccncc2)nc1NCc1ccc(F)cc1 [Cmpd 14],< 100
18,"COC(=O)c1n[nH]c(NC(=O)c2ccccc2OC)n1 [Cmpd 194, methyl 5-[(2-methoxybenzene)amido]-1H-1,2,4-triazole-3-carboxylate]",> 1000
19,"CC(=O)c1cn(-c2ccccn2)nc1NCc1ccc(F)cc1 [Cmpd 60, 1-(3-[(4-fluorophenyl)methyl]amino-1-(pyridin-2-yl)-1H-pyrazol-4-yl)ethan-1-one]",> 1000
20,"COc1ccccc1C(=O)n1nc(-c2ccccn2)nc1NCc1cc2ccccc2s1 [Cmpd 198, N-(1-benzothiophen-2-ylmethyl)-1-[(2-methoxyphenyl)carbonyl]-3-(pyridin-2-yl)-1H-1,2,4-triazol-5-amine]",> 1000
21,"COC(=O)c1n[nH]c(NC(=O)c2cccc(Cl)c2)n1 [Cmpd 195, methyl 5-[(3-chlorobenzene)amido]-1H-1,2,4-triazole-3-carboxylate]",> 1000

# — patent US20170326125A1, “MULTISUBSTITUTED AROMATIC COMPOUNDS AS INHIBITORS OF THROMBIN” (VERSEON CORPORATION, priority 2016, published 2017)
